According to article PMC6697720, “Saturation of acyl chains converts cardiolipin from an antagonist to an activator of Toll-like receptor-4” (Cellular and Molecular Life Sciences: CMLS, 2019):

Tests used:
RAW-Blue cells = assay: NF-κB activation (SEAP, Quanti-Blue) by CL or LPS in RAW-Blue cells; format: cell-based, murine; conditions: CL alone, overnight
Description: RAW-Blue™ cells were seeded the day before the experiment at 5 × 10^5 cells/mL in 48-well plates (500 μL/well).
These cells express a secreted embryonic alkaline phosphatase (SEAP) when NF-κB is activated. NF-κB activation was measured by measuring the alkaline phosphatase produced by RAW-Blue™ cells using the Quanti-Blue™ reagent (InvivoGen), according to the manufacturer’s instructions.
(§1) Fig. 3 Saturated but not unsaturated CLs have pro-inflammatory properties. a RAW-Blue™ cells were incubated overnight with the indicated amount of CL or LPS, supernatants were collected, and NF-κB activation quantified via Quanti-Blue™ test and reported here as fold induction as compared to control. Unpaired t test: differences with respect to the control (Ctrl) are not significant if p > 0.05 (no symbol); *p ≤ 0.0007. b Immortalized BMDM cells were incubated overnight with the indicated amount of CL or LPS; supernatants were collected and TNF-α quantified via ELISA assay. c, d Primary human monocytes were incubated overnight with the indicated amount of CL or LPS with or without the NLRP3 inhibitor MCC950, supernatants were collected, and TNF-α and IL-1β were quantified via ELISA assay. Graphs are representative of experiments from six different donors. Unpaired t test: differences with respect to the control (Ctrl) are not significant if p > 0.05 (no symbol); *p ≤ 0.021. Each bar represents the mean + standard deviation of three biological replicates (n = 3). Graphs are representative of at least three independent experiments

human TLR4/MD2/CD14 = target: T1, human TLR4/MD2/CD14 (Homo sapiens, UniProt O00206+Q9Y6Y9); assay: Inhibition of LPS-induced NF-κB luciferase reporter in HEK293 cells transfected with human TLR4/MD2/CD14; format: cell-based; conditions: for inhibition of LPS-induced signaling (LPS dose-response, 0 to 1000 ng/mL), mode of action: 1 h CL pre-incubation
T1 construct: expressed in transfected cells; host or cells: HEK293 (ATCC CRL1573), transient transfection with jetPEI
T1 sequence (O00206 24-839): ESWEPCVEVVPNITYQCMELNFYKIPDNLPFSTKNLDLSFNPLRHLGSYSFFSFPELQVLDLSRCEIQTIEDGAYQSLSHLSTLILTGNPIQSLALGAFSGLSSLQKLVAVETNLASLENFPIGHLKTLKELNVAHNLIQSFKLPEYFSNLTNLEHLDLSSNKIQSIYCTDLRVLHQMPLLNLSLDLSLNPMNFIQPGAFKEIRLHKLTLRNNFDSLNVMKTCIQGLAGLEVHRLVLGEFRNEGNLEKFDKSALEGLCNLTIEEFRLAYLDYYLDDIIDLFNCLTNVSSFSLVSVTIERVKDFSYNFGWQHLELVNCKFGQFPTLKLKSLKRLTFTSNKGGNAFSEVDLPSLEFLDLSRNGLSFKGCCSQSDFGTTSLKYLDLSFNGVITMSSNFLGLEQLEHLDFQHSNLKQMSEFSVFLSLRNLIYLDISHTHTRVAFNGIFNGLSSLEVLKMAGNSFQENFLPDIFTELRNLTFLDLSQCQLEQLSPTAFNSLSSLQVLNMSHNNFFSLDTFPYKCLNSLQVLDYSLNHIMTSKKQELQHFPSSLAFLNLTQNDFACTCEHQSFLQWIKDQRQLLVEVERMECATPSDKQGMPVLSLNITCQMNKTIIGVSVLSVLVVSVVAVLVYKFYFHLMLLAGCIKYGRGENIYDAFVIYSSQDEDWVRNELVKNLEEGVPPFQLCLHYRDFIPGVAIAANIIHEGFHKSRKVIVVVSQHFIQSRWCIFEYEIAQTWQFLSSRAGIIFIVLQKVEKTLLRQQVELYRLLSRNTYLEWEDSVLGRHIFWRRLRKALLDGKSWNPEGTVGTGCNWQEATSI
T1 sequence (Q9Y6Y9 19-160): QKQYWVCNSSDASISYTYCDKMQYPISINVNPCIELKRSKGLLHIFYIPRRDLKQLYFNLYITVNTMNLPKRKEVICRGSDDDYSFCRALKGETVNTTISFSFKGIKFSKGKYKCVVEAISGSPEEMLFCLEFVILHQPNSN
Description: (§2) Cells were seeded at 4 × 10^4 cells/mL in 96-well plates (200 μL/well) and transiently transfected 4 days later. Expression vectors containing an NF-κB transcription reporter vector-encoding firefly luciferase (10 ng/well pNF-κB-luc from Clontech), and a constitutively active reporter vector-encoding Renilla luciferase (5 ng/well phRG-TK; Promega), together with empty vector (pcDNA3.1 from Invitrogen Cat. N. V79020) and cDNA encoding human membrane CD14 (3 ng/well) and human or murine TLR4 and MD2 (3 ng/well) were mixed with jetPEI (Polyplus transfection Cat.N. 101-10N) and incubated with cells according to the manufacturer’s instructions.
(§3) After treatment supernatants were discarded, cells were washed with PBS and lysed with passive lysis buffer (Promega Cat.N. E1941). Luciferase and Renilla activity on cell lysates were quantified on a BioTek Synergy HT microplate reader using home-made luciferase reagent (20 mM Tricine, 2.67 mM MgSO4·7H2O, 0.265 mM (MgCO3)4Mg(OH)2·5H2O, 0.1 mM EDTA, 33.3 mM DTT, 530 μM ATP, 270 μM Acetyl Coenzyme A (Lithium salt), 470 μM luciferin (Biosynth), pH 7.8, diluted two times in water before use), or coelenterazine (Biosynth) dissolved in ethanol at 1 mg/mL and diluted 500 times in PBS before use as previously described. Firefly and Renilla luciferase activity on cell lysates were normalized, and data were expressed as fold induction as compared to unstimulated conditions.
In contrast to C16:0 and C18:0, C14:0 CL acted as an agonist in murine but not human cells (Fig. 3), a property similar to that of the LPS variant lipid IVa. to establish whether C14:0, like lipid IVa, is a weak human TLR4 antagonist, we tested the ability of all saturated CLs to inhibit signaling induced by LPS over a range of concentrations. For each CL, cells transfected with human TLR4/MD2/CD14 were pre-incubated with medium alone or two different CL concentrations for 1 h, and then washed and incubated for 6 h with increasing amounts of LPS (from 0 to 1000 ng/mL). […] The dose–response curve of LPS was shifted to the right.
(§4) Fig. 6 C14:0 is a competitive human TLR4 antagonist. HEK293 cells were transfected with plasmids encoding hTLR4, hMD2, and hCD14 together with a luciferase reporter plasmid dependent on NF-κB activation and a constitutively active reporter vector-encoding renilla luciferase. Two days after transfection, cells were incubated for 1 h with medium alone or the indicated amount of CLs, then washed and incubated 6 h with increasing amount of LPS. Luciferase and renilla were then quantified in cell lysate, and normalized and reported here as fold induction as compared to control. Each bar represents the mean ± standard deviation of three biological replicates (n = 3). Graphs are representative of at least three independent experiments
as §4, with “7 Unsaturated cardiolipins are” for “6 C14:0 is a”, “antagonists.” for “antagonist.”, “CLs, and” for “CLs,”
To quantify and compare the potency of CLs as inhibitors, we determined IC50 values in HEK293 cells transfected with human TLR4/MD2/CD14, for each of the antagonists (Fig. 8 and Table 1). […]

immortalized BMDMs = assay: TNF-α secretion in immortalized BMDMs (WT or TLR4-KO) incubated with CL or LPS; format: cell-based, murine; conditions: CL alone, overnight, immortalized BMDM
Description: Immortalized BMDM were seeded the day before the experiment at 5 × 10^5 cells/mL in 48-well plates (500 μL/well).
After stimulation, supernatants were collected, centrifuged, and assayed for cytokine secretion, while cells were assayed for viability.
TNF-α and IP-10 were quantified in cell supernatants using DuoSet ELISA kits from R&D Systems and human IL-1β using Instant ELISA™ Kit from Invitrogen, according to the manufacturer’s instructions. Absorbance was read with a BioTek Synergy HT Microplate Readers.
as §1
(§5) Fig. 4 Saturated CLs are TLR4 agonists. a HEK293 cells were transfected with plasmids encoding murine TLR4, MD2, and CD14 (mTLR4), human TLR4, MD2, and CD14 (hTLR4) or with empty pcDNA3.1 plasmid, MD2 and CD14 (w/o TLR) together with a luciferase reporter plasmid dependent on NF-κB activation and a constitutively active reporter vector-encoding renilla luciferase. Two days after transfection, cells were incubated for 6 h with medium alone (Ctrl) or the indicated amount of CLs or LPS. Luciferase and renilla were quantified in cell lysate, normalized and reported here as fold induction as compared to control. Unpaired t test: differences compared to the control are not significant if p > 0.05(no symbol); *p ≤ 0.005. b WT and TLR4-KO iBMDM cells were incubated overnight with medium (c), LPS or C14:0 CL. For each condition, mTNF-α was measured by ELISA assay. Unpaired t test: differences with respect to the control are not significant if p > 0.05(no symbol); *p ≤ 0.0001. Each bar represents the mean + standard deviation of three biological replicates (n = 3). Graphs are representative of at least three independent experiments

[1] = target: T2, human TLR4, MD2, and CD14 (Homo sapiens, UniProt O00206+Q9Y6Y9); assay: NF-κB luciferase reporter activation by CLs in HEK293 cells transfected with human TLR4, MD2 and CD14; format: cell-based
T2 construct: expressed in transfected cells; host or cells: HEK293 (ATCC CRL1573), transient transfection with jetPEI
T2 sequence (O00206 24-839): as the sequence (O00206 24-839) above
T2 sequence (Q9Y6Y9 19-160): as the sequence (Q9Y6Y9 19-160) above
Description: as §2, §3
The first signaling event of these pathways is NF-κB activation through TLR4 activation. To investigate how the individual CD14, TLR4, and MD2 proteins contribute to the responses of cells to CL, we used the HEK transfection model where we can control which protein (including from different species) may be added to the cells and their contribution to CL activation of Nf-κB [21, 30, 31]. We transfected HEK293 cells with human or murine CD14 and MD2 with or without TLR4 and incubated them with saturated CLs for 6 h (Fig. 4a). All three saturated CLs activated murine TLR4. By contrast, only C16:0 and C18:0 activated the human receptor. To further confirm the role of TLR4, we compared TNF-α secretion induced by C14:0 CL in wild-type (WT) or TLR4 knock out (TLR4 KO) immortalized BMDMs. Both LPS and C14:0 CL induced TNF-α secretion in WT but not in TLR4-KO BMDMs (Fig. 4b). TLR4-KO BMDMs were normally responsive to TLR2 ligand Pam3CSK4 (data not shown).
as §5, with “Graphs are representative of at least three independent experiments” left out

[2] = HEK293 hTLR4/hMD2/hCD14, 1 h CL, washed, 6 h LPS, Prism fit of Fig. 8 data

CCCC/C=C\CCCCCCCC(=O)OC[C@H](COP(=O)(O)OCC(O)COP(=O)(O)OC[C@@H](COC(=O)CCCCCCC/C=C\CCCC)OC(=O)CCCCCCC/C=C\CCCC)OC(=O)CCCCCCC/C=C\CCCC (stereo partly shown) [C14:1 CL]
NF-κB activation (RAW-Blue cells): not
inhibition of LPS-induced signaling (LPS dose-response, 0 to 1000 ng/mL), mode of action (human TLR4/MD2/CD14; washed, 6 h LPS): competitive TLR4 antagonists
IC50 (human TLR4/MD2/CD14; [2]): 77.9 nM
IC50 (human TLR4/MD2/CD14; HEK293 human TLR4/MD2/CD14): 77 nM
difference in potency between C14:1 and C18:1 (human TLR4/MD2/CD14; ratio of IC50 values, Table 1): 400 fold
TNF-α secretion (immortalized BMDMs): not

CCCCCCCC/C=C\CCCCCCCC(=O)OC[C@H](COP(=O)(O)OCC(O)COP(=O)(O)OC[C@@H](COC(=O)CCCCCCC/C=C\CCCCCCCC)OC(=O)CCCCCCC/C=C\CCCCCCCC)OC(=O)CCCCCCC/C=C\CCCCCCCC (stereo partly shown) [C18:1 CL]
NF-κB activation (RAW-Blue cells): not
inhibition of LPS-induced signaling (LPS dose-response, 0 to 1000 ng/mL), mode of action (human TLR4/MD2/CD14; washed, 6 h LPS): competitive TLR4 antagonists
IC50 (human TLR4/MD2/CD14; [2]): 33500 nM
TNF-α secretion (immortalized BMDMs): not

CCCCCCCCCCCCCCCC(=O)OC[C@H](COP(=O)(O)OCC(O)COP(=O)(O)OC[C@@H](COC(=O)CCCCCCCCCCCCCCC)OC(=O)CCCCCCCCCCCCCCC)OC(=O)CCCCCCCCCCCCCCC (stereo partly shown) [C16:0 CL]
NF-κB activation (RAW-Blue cells): induced
activation of human TLR4 (NF-κB) ([1]; 6 h incubation): activated
NF-κB induction in HEK293 cells transfected with TLR4 in the absence of CD14 or MD2 ([1]; hTLR4 without CD14 or without MD2, 6 h): not induced
inhibition of LPS-induced signaling (LPS dose-response, 0 to 1000 ng/mL), mode of action (human TLR4/MD2/CD14; washed, 6 h LPS): did not inhibit
TNF-α secretion (immortalized BMDMs): induced

CCCCCC/C=C\CCCCCCCC(=O)OC[C@H](COP(=O)(O)OCC(O)COP(=O)(O)OC[C@@H](COC(=O)CCCCCCC/C=C\CCCCCC)OC(=O)CCCCCCC/C=C\CCCCCC)OC(=O)CCCCCCC/C=C\CCCCCC (stereo partly shown) [C16:1 CL]
NF-κB activation (RAW-Blue cells): not
inhibition of LPS-induced signaling (LPS dose-response, 0 to 1000 ng/mL), mode of action (human TLR4/MD2/CD14; washed, 6 h LPS): competitive TLR4 antagonists
IC50 (human TLR4/MD2/CD14; [2]): 925 nM
TNF-α secretion (immortalized BMDMs): not
